Ends that are not written are not given here.
What was measured:
[1] = Circular dichroism spectroscopy in SDS micelles; type: physicochemical; details: CD, peptide 30 µM in 80 mM SDS
Procedure: (§1) The far-ultraviolet circular dichroism (CD) spectra were recorded as described. Phylloseptins-S (30 µM) were solubilized either in 80 mM sodium dodecyl sulfate (SDS) or in phosphate-buffered saline (PBS: 10 mM phosphate, pH 7.3) containing 1 mg/mL of large unilamellar vesicles (LUVs) of 1,2-dimyristoyl-sn-glycero-3-phosphocholine (DMPC) and 1,2-dimyristoyl-sn-glycero-3-phosphoglycerol (DMPG) (3∶1 mol/mol). DMPC and DMPG were purchased from Avanti Polar Lipids, Inc. Each spectrum was the average of four scans. CD measurements are reported as Δ/n, where Δ is the dichroic increment and n is the number of residues in the peptide.
(§2) Figure 6 Circular dichroism spectra of synthetic phylloseptins-S (30 µM). (A) DMPC/DMPG (3∶1) large unilamellar vesicles in PBS (1 mg/mL). (B) 80 mM SDS. CD measurements are reported as the dichroic increment (Δε) per residue.

[2] = tested on: Leishmania infantum (strain MHOM/MA/67/ITMAP-263) promastigotes; type: cell-based
Procedure: (§3) The effect of phylloseptins-S was evaluated against several bacterial strains and yeasts (Table 2). Bacteria were cultured in Luria-Bertani broth (LB), whereas yeasts were cultured in Yeast Peptone Dextrose medium (YPD), and minimal inhibitory concentrations (MICs) were determined by measuring the absorbance at 630 nm in 96-well microtitration plates, as described previously. Leishmanicidal activity of phylloseptins-S was also examined against promastigotes of different Leishmania species: Leishmania infantum (strain MHOM/MA/67/ITMAP-263), L. major (MHOM/SU/73/5-ASKH) and L. braziliensis (MHOM/BR/75/M2904). Culture of promastigotes and determination of the growth inhibition were performed as previously described, [22], [23].
Figure 3 Activity of phylloseptins-S against Leishmania infantum promastigotes. IC50 values were determined from a dose-response inhibition fit using GraphPad Prism 5.0 (Table 2). Results represent the mean ± S.E.M. and are representative of three experiments carried out in triplicates.

S. aureus ATCC 43300 = details: strain resistant to methicillin and oxacillin; LB medium (pH 7), absorbance at 630 nm; average of three independent experiments in triplicates
Procedure: as §3
(§4) The antimicrobial activity of synthetic PLS-S1 to -S5 was assayed in LB medium (pH 7) against several Gram-negative and Gram-positive bacteria, and multi-drug resistant S. aureus strains. […] The antiparasitic activity of PLSs was also determined against three Leishmania species (L. infantum, L. major, and L. braziliensis). […] Because PLS-S3 contains histidines as basic residues and that approximately only 11% of these residues are positively charged at pH 7, we have evaluated the antibacterial activity at pH 5 at which His residues are predominantly positively charged (∼91%).

A. baumannii ATCC 19606 = details: LB medium (pH 7), absorbance at 630 nm; average of three independent experiments in triplicates
Procedure: as §3, §4

S. pyogenes ATCC 19615 = details: LB medium (pH 7), absorbance at 630 nm; average of three independent experiments in triplicates
Procedure: as §3, §4

E. faecalis ATCC 29212 = details: LB medium (pH 7), absorbance at 630 nm; average of three independent experiments in triplicates
Procedure: as §3, §4

S. aureus ST1065 [3] = details: LB medium (pH 7), absorbance at 630 nm; average of three independent experiments in triplicates
Procedure: as §3, §4

E. coli ML-35p = details: LB medium (pH 7), absorbance at 630 nm; average of three independent experiments in triplicates
Procedure: as §3, §4

S. aureus ATCC BAA-44 = details: multidrug resistant strain; LB medium (pH 7), absorbance at 630 nm; average of three independent experiments in triplicates
Procedure: as §3, §4

E. coli ATCC 25922 = details: for MIC: ATCC 25922, pH 7
Procedure: as §3, §4

P. aeruginosa ATCC 27853 = details: LB medium (pH 7), absorbance at 630 nm; average of three independent experiments in triplicates
Procedure: as §3, §4

S. aureus ATCC 25923 = details: LB medium (pH 7), absorbance at 630 nm, 96-well plates; average of three independent experiments in triplicates
Procedure: as §3, §4

K. pneumoniae ATCC 13883 = details: LB medium (pH 7), absorbance at 630 nm; average of three independent experiments in triplicates
Procedure: as §3, §4

human erythrocytes = type: cell-based
Procedure: (§5) Hemolytic assays were performed using fresh human erythrocytes from a healthy donor according to a previously described protocol. Cytotoxic activity of PLS-S was also determined on the human leukemia monocyte cell line THP-1. 80 µL of 6.25×10^5 cells/mL were incubated for 72 h with 20 µL of peptide (3 to 50 µM, final concentrations) at 37°C and 5% CO2 in RPMI medium supplemented with 10% FCS. The cell viability was determined by adding 10 µL of methylthiazolyldiphenyl-tetrazolium bromide (MTT, 10 mg/mL) to the plate. After 4h incubation at 37°C, formazan was solubilized with 100 µL of a solution containing 50% isopropanol and 10% SDS, and the absorbance was measured at 570 nm. The lytic concentration 50 (LC50), which correspond to the peptide concentration producing 50% lysis, was determined with the GraphPad Prism® 5.0 software. Results were expressed as the mean of three independent experiments performed in triplicates.

[4] = Circular dichroism spectroscopy with DMPC/DMPG (3:1) large unilamellar vesicles; type: physicochemical; details: CD, peptide 30 µM, DMPC/DMPG (3:1) LUVs 1 mg/mL in PBS pH 7.3
Procedure: as §1, §2

[5] = tested on: human leukemia monocyte cell line THP-1; experiment: Cytotoxic activity, MTT; type: cell-based; details: for IC50: 72 h, 37°C, RPMI + 10% FCS, peptide 3 to 50 µM, MTT read at 570 nm, average of three independent experiments in triplicates; for LC50: value stated jointly for the three peptides
Procedure: as §5

[6] = tested on: L. major (MHOM/SU/73/5-ASKH) promastigotes; type: cell-based
Procedure: as §3

S. aureus ST1065 [7] = experiment: Time-kill assay; type: cell-based; details: for time to complete killing: peptide at two-fold above the MIC (MIC 6.25 µM), ∼2–3 10^6 cfu/mL in PBS, two experiments in triplicates
Procedure: The time-kill kinetics of phylloseptins-S against the Gram-negative bacteria E. coli ML-35p and the Gram-positive strain S. aureus ST1065 were evaluated as previously described with a dose of peptide corresponding to the MIC and two-fold above the MIC. Two experiments were realized in triplicates.
Figure 4 Time-kill curves of PLS-S1 (S1), -S2 (S2), and -S4 (S4). […] Controls correspond to bacteria incubated in PBS without peptide. The data are the means ± S.E.M. of two experiments carried out in triplicates.

Row | Substance | helix content [1] | IC50 [2] | MIC (S. aureus ATCC 43300) | MIC (A. baumannii ATCC 19606) | MIC (S. pyogenes ATCC 19615) | MIC (E. faecalis ATCC 29212) | MIC (S. aureus ST1065 [3]) | MIC (E. coli ML-35p) | MIC (S. aureus ATCC BAA-44) | MIC (E. coli ATCC 25922) | MIC (P. aeruginosa ATCC 27853) | MIC (S. aureus ATCC 25923) | MIC (K. pneumoniae ATCC 13883) | LC50 (peptide concentration producing 50% lysis) (human erythrocytes) | helix content [4] | IC50 [5] | LC50 [5] | IC50 [6] | time to complete killing (S. aureus ST1065 [7]) | other results
1 | FLSLIPHIVSGVASIAKHF-NH2 [PLS-S1] | 96% | 16.5 µM | 6.25 µM | 6.25 µM | 3.12 µM | 25 µM | 6.25 µM | >100 µM | 6.25 µM | 70 µM | >100 µM | 6.25 µM | >100 µM | 39 µM | 70% | 23 µM | 23 µM | 12.6 µM | ≤ 5 min | MIC at pH 5 (E. coli ATCC 25922; ATCC 25922, pH 5): 12.5 µM
2 | FLSLIPHIVSGVASLAKHF-NH2 [PLS-S2] | 65% | 18.5 µM | 6.25 µM | 6.25 µM | 1.56 µM | 25 µM | 6.25 µM | 30 µM | 6.25 µM | 25 µM | 200 µM | 6.25 µM | 25 µM | 25 µM | 80% | 22.5 µM | 23 µM | 13.3 µM | ≤ 5 min | –
3 | FLSMIPHIVSGVAALAKHL-NH2 [PLS-S4] | 59% | 22 µM | 6.25 µM | 6.25 µM | 3.12 µM | 50 µM | 6.25 µM | 25 µM | 6.25 µM | 25 µM | 100 µM | 6.25 µM | 25 µM | 33 µM | 68% | 23 µM | 23 µM | 18 µM | – | killing kinetics (in words) (S. aureus ST1065 [7]; compared with PLS-S1 and -S2, MIC and two-fold above the MIC, in PBS): slower

Reference: PMC3742671, “Structure, Antimicrobial Activities and Mode of Interaction with Membranes of Bovel Phylloseptins from the Painted-Belly Leaf Frog, Phyllomedusa sauvagii” (PLoS ONE, 2013)
